Measurements: ChEMBL document CHEMBL3861981 (J Med Chem, 2016)

What was measured:
Hepatitis C virus = test: Antiviral activity against HCV genotype 1b Con1 expressing NS3 protease infected in human Huh7.5 cells assessed as reduction in viral RNA replication by luciferase reporter gene assay; format: functional, cell-based, Hepacivirus hominis; conditions: genotype 1b Con1, Huh-7
[1] = Half life in human liver microsomes; format: ADME
[2] = Clearance in cannulated Sprague-Dawley rat plasma at 5 mg/kg, iv administered as 10 mins infusion measured up to 24 hrs post dose by LC/MS/MS analysis; format: ADME, organism-based
[3] = Drug uptake in cannulated Sprague-Dawley rat liver at 15 mg/kg administered via oral gavage measured at 24 hrs post dose by LC/MS/MS analysis; format: ADME, organism-based; conditions: read-out: Drug uptake
[4] = Half life in cannulated Sprague-Dawley rat plasma at 5 mg/kg, iv administered as 10 mins infusion by LC/MS/MS analysis; format: ADME, organism-based
[5] = AUC in cannulated Sprague-Dawley rat plasma at 15 mg/kg administered via oral gavage measured up to 24 hrs post dose by LC/MS/MS analysis; format: ADME, organism-based; set-up: dose 15 mg/kg, time < 24 hr, route oral
[6] = Oral bioavailability in cannulated Sprague-Dawley rat plasma at 15 mg/kg administered via gavage measured up to 24 hrs post dose by LC/MS/MS analysis; format: ADME, organism-based
[7] = Cardiotoxicity in rabbit heart assessed as change in sinoatrial node recovery time at 10 uM perfused for 20 mins measured for 1 min by electrophysiology method relative to control; format: toxicity, tissue-based, Oryctolagus cuniculus
[8] = Cardiotoxicity in rabbit heart assessed as change in heart rate at 10 uM perfused for 20 mins measured for 1 min by electrophysiology method relative to control; format: toxicity, tissue-based, Oryctolagus cuniculus
[9] = Cardiotoxicity in rabbit heart assessed as change in sinoatrial node recovery time at 10 uM perfused for 60 mins measured every 10 mins during perfusion by electrophysiology method relative to control; format: toxicity, tissue-based, Oryctolagus cuniculus; conditions: 1 h
[10] = Cardiotoxicity in rabbit heart assessed as change in heart rate at 10 uM perfused for 60 mins measured every 10 mins during perfusion by electrophysiology method relative to control; format: toxicity, tissue-based, Oryctolagus cuniculus; conditions: 1 h

| Compound | EC50 (Hepatitis C virus) [nM] | half-life [1] [h] | clearance [2] [mL/min/kg] | concentration at 24 h [3] [µM] | half-life [4] [h] | AUC at 24 h [5] [µM·h] | bioavailability [6] [%] | Activity [7] [%] | Activity [8] [%] | Activity [9] [%] | Activity [10] [%] |
| --- | --- | --- | --- | --- | --- | --- | --- | --- | --- | --- | --- |
| COc1cnc(O[C@@H]2C[C@@H](C(=O)N[C@]3(C(=O)NS(=O)(=O)C4CC4)C[C@H]3C3CC3)N(C(=O)[C@@H](NC(=O)OC3(C)CCCC3)C(C)(C)C)C2)c2cc(Cl)ccc12 | 3.7 | 0.4 | – | – | – | – | – | – | – | – | – |
| COc1cnc(O[C@@H]2C[C@@H](C(=O)N[C@]3(C(=O)NS(=O)(=O)C4CC4)C[C@H]3C3CC3)N(C(=O)[C@@H](NC(=O)O[C@H](C)C(F)(F)F)C(C)(C)C)C2)c2cc(Cl)cc(Cl)c12 | 3 | 2 | 40.4 | 24 | 5.5 | 6.3 | 42.4 | – | – | – | – |
| C=C[C@@H]1C[C@]1(NC(=O)[C@@H]1C[C@@H](Oc2nccc3cc(OC)ccc23)CN1C(=O)[C@@H](NC(=O)OC(C)(C)C)C(C)(C)C)C(=O)NS(=O)(=O)C1CC1 | – | 0.55 | – | 0.74 | – | 14.1 | – | 290 | -25 | – | – |
| CC[C@@H]1C[C@]1(NC(=O)[C@@H]1C[C@@H](Oc2ncc(OC)c3ccc(Cl)cc23)CN1C(=O)[C@@H](NC(=O)OC(C)(C)C)C(C)(C)C)C(=O)NS(=O)(=O)C1CC1 | 16 | 0.567 | 18 | 40 | 12 | 6.9 | 43 | 26 | -12 | 148 | -35 |
| COc1cnc(O[C@@H]2C[C@@H](C(=O)N[C@]3(C(=O)NS(=O)(=O)C4CC4)C[C@H]3C3CC3)N(C(=O)[C@@H](NC(=O)OC3CCC3)C(C)(C)C)C2)c2cc(Cl)ccc12 | 16.3 | 0.967 | – | – | – | – | – | – | – | – | – |
| COc1cnc(O[C@@H]2C[C@@H](C(=O)N[C@]3(C(=O)NS(=O)(=O)C4CC4)C[C@H]3C3CC3)N(C(=O)[C@@H](NC(=O)O[C@H](C)C(F)(F)F)C(C)(C)C)C2)c2cccc(Cl)c12 | 1.8 | 3.33 | 40.4 to 40.7 | 49.3 | 10.9 | 8.6 | 122 | 53 | -19 | – | – |
| COc1cnc(O[C@@H]2C[C@@H](C(=O)N[C@]3(C(=O)NS(=O)(=O)C4CC4)C[C@H]3C3CC3)N(C(=O)[C@@H](NC(=O)OC3CCCC3)C(C)(C)C)C2)c2cc(Cl)ccc12 | 19.8 | 0.65 | – | – | – | – | – | – | – | – | – |
| COc1ccc2c(O[C@@H]3C[C@@H](C(=O)N[C@]4(C(=O)NS(=O)(=O)C5CC5)C[C@H]4C4CC4)N(C(=O)[C@@H](NC(=O)O[C@H](C)C(F)(F)F)C(C)(C)C)C3)nc(OC)cc2c1 | 2.4 | 1.77 | 14 | 19.2 | 3 | 0.79 to 0.794 | 3.5 | – | -58 | – | – |
| C=C(C)[C@@H]1C[C@]1(NC(=O)[C@@H]1C[C@@H](Oc2ncc(OC)c3ccc(Cl)cc23)CN1C(=O)[C@@H](NC(=O)OC(C)(C)C)C(C)(C)C)C(=O)NS(=O)(=O)C1CC1 | 12.5 | 0.0833 | – | – | – | – | – | – | – | – | – |
| COc1cnc(O[C@@H]2C[C@@H](C(=O)N[C@]3(C(=O)NS(=O)(=O)C4CC4)C[C@H]3C3CC3)N(C(=O)[C@@H](NC(=O)OC(C)(C)C)C(C)(C)C)C2)c2cc(Cl)ccc12 | 18.3 | 1.38 | 5 to 5.2 | 35.7 | 10 | 19.6 | 44.2 | 18.5 | -3.5 | 20 | -7.5 |
| COc1cnc(O[C@@H]2C[C@@H](C(=O)N[C@]3(C(=O)NS(=O)(=O)C4CC4)C[C@H]3C3CC3)N(C(=O)[C@@H](NC(=O)OC(C)(C)C(F)F)C(C)(C)C)C2)c2cc(Cl)ccc12 | 58.2 | 2 | – | – | – | – | – | – | – | – | – |
| COc1cnc(O[C@@H]2C[C@@H](C(=O)N[C@]3(C(=O)NS(=O)(=O)C4CC4)C[C@H]3C(C)C)N(C(=O)[C@@H](NC(=O)OC(C)(C)C)C(C)(C)C)C2)c2cc(Cl)ccc12 | > 100 | 1.38 | – | – | – | – | – | – | – | – | – |

Continued, in another order:

| EC50 (Hepatitis C virus) [nM] | half-life [1] [h] | clearance [2] [mL/min/kg] | concentration at 24 h [3] [µM] | half-life [4] [h] | AUC at 24 h [5] [µM·h] | bioavailability [6] [%] | Compound | Activity [7] [%] | Activity [8] [%] | Activity [9] [%] | Activity [10] [%] |
| --- | --- | --- | --- | --- | --- | --- | --- | --- | --- | --- | --- |
| 8 | 2.58 | – | – | – | – | – | COc1cnc(O[C@@H]2C[C@@H](C(=O)N[C@]3(C(=O)NS(=O)(=O)C4CC4)C[C@H]3C3CC3)N(C(=O)[C@@H](NC(=O)O[C@H](C)C(F)(F)F)C(C)C)C2)c2cc(Cl)ccc12 | – | – | – | – |
| 7.2 | 2 | – | – | – | – | – | CCC(CC)[C@H](NC(=O)O[C@H](C)C(F)(F)F)C(=O)N1C[C@H](Oc2ncc(OC)c3ccc(Cl)cc23)C[C@H]1C(=O)N[C@]1(C(=O)NS(=O)(=O)C2CC2)C[C@H]1C1CC1 | – | – | – | – |
| 146 | > 3.33 | – | – | – | – | – | COc1cnc(O[C@@H]2C[C@@H](C(=O)N[C@]3(C(=O)NS(=O)(=O)C4CC4)C[C@H]3C3CC3)N(C(=O)[C@@H](NC(=O)O[C@@H](C)C(F)(F)F)C(C)(C)C)C2)c2cc(Cl)ccc12 | – | – | – | – |
| 13.3 | 3.33 | – | – | – | – | – | COc1cnc(O[C@@H]2C[C@@H](C(=O)N[C@]3(C(=O)NS(=O)(=O)C4CC4)C[C@H]3C3CC3)N(C(=O)[C@@H](NC(=O)O[C@H](C)C(F)(F)F)C3CC3)C2)c2cc(Cl)ccc12 | – | – | – | – |
| 48.6 | – | – | – | – | – | – | COc1cnc(O[C@@H]2C[C@@H](C(=O)N[C@]3(C(=O)NS(=O)(=O)C4CC4)C[C@H]3C3CC3)N(C(=O)[C@@H](NC(=O)OCC(F)(F)F)C(C)(C)C)C2)c2cc(Cl)ccc12 | – | – | – | – |
| 8.6 | 1.85 | – | – | – | – | – | COc1cnc(O[C@@H]2C[C@@H](C(=O)N[C@]3(C(=O)NS(=O)(=O)C4CC4)C[C@H]3C3CC3)N(C(=O)[C@@H](NC(=O)O[C@H](C)C(F)(F)F)C3CCC3)C2)c2cc(Cl)ccc12 | – | – | – | – |
| 1.9 | 2.13 | 4.7 | 55.3 | 14 | 19.1 | 35.5 | COc1cnc(O[C@@H]2C[C@@H](C(=O)N[C@]3(C(=O)NS(=O)(=O)C4CC4)C[C@H]3C3CC3)N(C(=O)[C@@H](NC(=O)OC(C)(C)C(F)(F)F)C(C)(C)C)C2)c2cc(Cl)ccc12 | 50.4 | -14.3 | – | – |
| 6.3 | 1.63 | – | – | – | – | – | CC[C@@H](C)[C@H](NC(=O)O[C@H](C)C(F)(F)F)C(=O)N1C[C@H](Oc2ncc(OC)c3ccc(Cl)cc23)C[C@H]1C(=O)N[C@]1(C(=O)NS(=O)(=O)C2CC2)C[C@H]1C1CC1 | – | – | – | – |
| 66.7 | 0.583 | – | – | – | – | – | COc1cnc(O[C@@H]2C[C@@H](C(=O)N[C@]3(C(=O)NS(=O)(=O)C4CC4)C[C@H]3C3CC3)N(C(=O)[C@@H](NC(=O)OC(C)C)C(C)(C)C)C2)c2cc(Cl)ccc12 | – | – | – | – |
| 3.4 | 2.37 | 30.2 | 30.7 | 10 | 7.9 | 81 | COc1cnc(O[C@@H]2C[C@@H](C(=O)N[C@]3(C(=O)NS(=O)(=O)C4CC4)C[C@H]3C3CC3)N(C(=O)[C@@H](NC(=O)O[C@H](C)C(F)(F)F)C(C)(C)C)C2)c2ccc(Cl)cc12 | – | – | – | – |
